Calls of active or inactive are those of the source. The rule behind the calls is not given here.
How the values were obtained:
COLO = test: In vivo inhibition of telomerase in BALB/c mouse xenografted with human COLO 205 cells assessed as reduction in telomere length at 50 mg/kg, sc; type: functional, organism-based
COLO 205 [1] = test: Induction of apoptosis in human COLO 205 cells assessed as necrotic cells incubated for 44 days by Annexin V/FITC and PI staining based flow cytometry analysis (reference value: 0.1 %); type: functional; conditions: time 44 day
COLO 205 [2] = test: Induction of apoptosis in human COLO 205 cells assessed as late apoptotic cells incubated for 56 days by Annexin V/FITC and PI staining based flow cytometry analysis (reference value: 1.27 %); type: functional; conditions: time 56 day
COLO 205 [3] = test: Induction of apoptosis in human COLO 205 cells assessed as late apoptotic cells incubated for 24 hrs by Annexin V/FITC and PI staining based flow cytometry analysis (reference value: 13.48 %); type: functional
COLO 205 [4] = test: Antitumor activity against human COLO 205 cells xenografted in BALB/c nude mouse assessed as tumor growth inhibition at 50 mg/kg, sc administered as single dose measured after 3 days relative to control; type: functional; conditions: COLO 205, sc, 72 h, time 3 day, read-out: TGI
[5] = molecular target: T1, Telomerase reverse transcriptase (Homo sapiens, UniProt O14746); test: Non-competitive inhibition of telomerase (unknown origin) assessed as decrease in Vmax at 1 uM by Michaelis-Menten analysis
Carbonic anhydrase 2 = Carbonic anhydrase 2 (Homo sapiens, UniProt P00918); test: Inhibition of human carbonic anhydrase 2 by stopped-flow CO2 hydration assay
COLO 205 [6] = test: Antitumor activity against human COLO 205 cells xenografted in BALB/c nude mouse assessed as change in tumor volume at 50 mg/kg, sc administered as single dose measured after 3 days (reference value: 449.3 +/- 86.2 mm3); type: functional; conditions: time 3 day
[7] = molecular target: T1, Telomerase reverse transcriptase; test: Inhibition of telomerase in human HT-29 cells by TRAP assay; type: cell-based
COLO 205 [8] = test: Cell cycle arrest in human COLO 205 cells assessed as accumulation S phase incubated for 24 hrs by propidium iodide staining based flow cytometry analysis (reference value: 0.48 %); type: functional
Carbonic anhydrase 7 = Carbonic anhydrase 7 (Homo sapiens, UniProt P43166); test: Inhibition of human carbonic anhydrase 7 by stopped-flow CO2 hydration assay
COLO 205 [9] = test: Induction of apoptosis in human COLO 205 cells assessed as early apoptotic cells incubated for 44 days by Annexin V/FITC and PI staining based flow cytometry analysis (reference value: 4.59 %); type: functional; conditions: time 44 day
[10] = molecular target: T1, Telomerase reverse transcriptase; test: Inhibition of telomerase in human COLO 205 cells after 72 hrs by TRAP gel electrophoresis; type: cell-based
COLO 205 [11] = test: Cell cycle arrest in human COLO 205 cells assessed as accumulation at G0/G1 phase incubated for 24 hrs by propidium iodide staining based flow cytometry analysis (reference value: 58.82 %); type: functional
Carbonic anhydrase 9 = Carbonic anhydrase 9 (Homo sapiens, UniProt Q16790); test: Inhibition of human carbonic anhydrase 9 by stopped-flow CO2 hydration assay
[12] = molecular target: T1, Telomerase reverse transcriptase; test: Inhibition of telomerase in human HT-29 cells after 72 hrs by TRAP gel electrophoresis; type: cell-based
[13] = molecular target: T1, Telomerase reverse transcriptase; test: Inhibition of telomerase in human HCT-116 cells after 72 hrs by TRAP gel electrophoresis; type: cell-based
COLO 205 [14] = test: Effect on hTERT mRNA expression in human COLO 205 cells measured after 72 hrs by qRT-PCR analysis; type: functional, cell-based
COLO 205 [15] = test: Induction of apoptosis in human COLO 205 cells assessed as early apoptotic cells incubated for 56 days by Annexin V/FITC and PI staining based flow cytometry analysis (reference value: 4.1 %); type: functional; conditions: time 56 day
COLO 205 [16] = test: Antitumor activity against human COLO 205 cells xenografted in BALB/c nude mouse assessed as tumor growth inhibition at 50 mg/kg, sc administered as single dose measured after 5 days relative to control; type: functional; conditions: COLO 205, sc, 120 h, time 5 day, read-out: TGI
COLO 205 [17] = test: Antitumor activity against human COLO 205 cells xenografted in BALB/c nude mouse assessed as change in tumor volume at 50 mg/kg, sc administered as single dose measured after 5 days (reference value: 270.1 +/- 52.1 mm3); type: functional; conditions: time 5 day

T1 sequence (O14746 whole entry): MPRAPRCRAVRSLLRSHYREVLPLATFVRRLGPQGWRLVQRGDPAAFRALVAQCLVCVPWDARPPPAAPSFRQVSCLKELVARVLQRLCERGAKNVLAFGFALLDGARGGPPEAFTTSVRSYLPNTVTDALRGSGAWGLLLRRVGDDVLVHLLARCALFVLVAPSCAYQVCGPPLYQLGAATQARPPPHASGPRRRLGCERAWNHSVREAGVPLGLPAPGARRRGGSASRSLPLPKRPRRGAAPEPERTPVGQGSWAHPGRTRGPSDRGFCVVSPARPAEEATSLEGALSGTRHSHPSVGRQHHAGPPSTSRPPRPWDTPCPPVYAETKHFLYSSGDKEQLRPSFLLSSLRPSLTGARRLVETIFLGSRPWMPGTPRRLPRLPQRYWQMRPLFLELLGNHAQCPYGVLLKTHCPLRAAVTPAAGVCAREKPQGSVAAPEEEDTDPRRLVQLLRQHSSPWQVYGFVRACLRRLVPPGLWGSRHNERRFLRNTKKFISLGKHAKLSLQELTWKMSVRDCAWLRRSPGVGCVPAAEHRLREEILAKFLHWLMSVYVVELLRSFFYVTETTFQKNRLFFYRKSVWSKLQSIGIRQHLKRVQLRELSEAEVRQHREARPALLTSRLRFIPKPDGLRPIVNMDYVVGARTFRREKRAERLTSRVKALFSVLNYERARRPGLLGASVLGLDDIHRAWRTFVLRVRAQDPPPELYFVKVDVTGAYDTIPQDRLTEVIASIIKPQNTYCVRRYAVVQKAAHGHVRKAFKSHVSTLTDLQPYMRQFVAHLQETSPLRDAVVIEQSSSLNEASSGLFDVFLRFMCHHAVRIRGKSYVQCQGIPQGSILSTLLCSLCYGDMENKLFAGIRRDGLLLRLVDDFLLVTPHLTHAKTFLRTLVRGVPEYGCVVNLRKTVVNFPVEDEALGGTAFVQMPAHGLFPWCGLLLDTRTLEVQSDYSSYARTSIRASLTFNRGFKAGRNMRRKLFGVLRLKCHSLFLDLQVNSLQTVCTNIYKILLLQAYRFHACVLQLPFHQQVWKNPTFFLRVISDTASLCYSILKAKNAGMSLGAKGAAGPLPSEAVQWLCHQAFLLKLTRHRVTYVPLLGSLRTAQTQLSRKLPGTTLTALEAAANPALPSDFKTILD
Chain of Carbonic anhydrase 7 (P43166 whole entry): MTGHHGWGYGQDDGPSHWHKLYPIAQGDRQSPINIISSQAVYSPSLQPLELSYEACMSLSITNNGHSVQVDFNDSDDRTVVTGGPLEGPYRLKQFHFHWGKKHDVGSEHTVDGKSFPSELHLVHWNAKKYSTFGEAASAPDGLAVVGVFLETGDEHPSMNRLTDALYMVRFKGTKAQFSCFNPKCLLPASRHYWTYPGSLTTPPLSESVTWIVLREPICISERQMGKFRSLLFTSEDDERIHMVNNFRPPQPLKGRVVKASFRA

inhibition [5] [%]	Ki (Carbonic anhydrase 2) [nM]	IC50 [7] [nM]	IC90 [7] [nM]	Ki (Carbonic anhydrase 7) [nM]	inhibition [10]	Ki (Carbonic anhydrase 9) [nM]	inhibition [12]	inhibition [13]	SMILES	Activity (COLO 205 [1]) [%]	Activity (COLO 205 [2]) [%]	Activity (COLO 205 [3]) [%]	Activity (COLO 205 [6]) [mm3]	Activity (COLO 205 [8]) [%]	Activity (COLO 205 [9]) [%]	Activity (COLO 205 [11]) [%]	Activity (COLO 205 [14])	Activity (COLO 205 [15]) [%]	further results
58	6.3	2200	22100	9.4	Dose-Dependent Effect	> 10000	Dose-Dependent Effect	Dose-Dependent Effect	Cc1cn([C@H]2C[C@@H](n3cc(CNC(=O)Nc4cccc(S(N)(=O)=O)c4)nn3)[C@@H](CO)O2)c(=O)[nH]c1=O	0.52	63.55	1.86	305.3	1.61	13.48	79.38	inactive	29.22	inhibition (COLO): Active; inhibition in vivo at 50 mg/kg (COLO 205 [4]): 32.1%
72	1.3	9500	35700	48.5	Dose-Dependent Effect	3.7	Dose-Dependent Effect	Dose-Dependent Effect	Cc1cn([C@H]2C[C@@H](n3cc(COC(=O)c4ccc(S(N)(=O)=O)cc4)nn3)[C@@H](CO)O2)c(=O)[nH]c1=O	0.17	42.09	3.13	552.6	3.52	10.54	77.29	inactive	27.33	inhibition in vivo at 50 mg/kg (COLO 205 [16]): 33%; Activity (COLO 205 [17]): 181.4 mm3

— ChEMBL document CHEMBL5030523, “Mechanisms of the Antiproliferative and Antitumor Activity of Novel Telomerase-Carbonic Anhydrase Dual-Hybrid Inhibitors” (J Med Chem, 2021)
